Assay in all cases: NCI tumour cell line growth inhibition, 48 h
Assay [1] relates to ACHN renal.
The test system of assay [2] is MALME-3M melanoma.
For assay [3], the system named is SF-268 CNS.
In assay [4] the test system is UACC-62 melanoma.
Assay [5] deals with UACC-257 melanoma.
Assay [6] concerns SK-OV-3 ovarian.
Assay [7] has as its system SR leukemia.
The subject of assay [8] is RXF 393 renal.
Assay [9] has as its system HCC-2998 colon.

Values joined by “and” are separate entries in the source; they are usually repeats but may differ in a detail not shown here. Equal entries are not always repeated.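 Following 48 hours of exposure in 96-well plates, responses at five concentrations were used to interpolate endpoints linearly. The concentration for 50% growth inhibition is given as GI50. The concentration for full growth arrest is given as TGI.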 Where a SMILES comes first, the peptide text is derived from it. The star is where a group is joined. Trt = c1ccc(C(c2ccccc2)(c2ccccc2)*)cc1; Cbz = O=C(OCc1ccccc1)*

Turning to `Cc1ccc(CNc2ccc(Br)cc2)cc1`, the TGI in assay [1] was 41.7 µM; in assay [2], 64 µM; in assay [3], over 100 µM; in assay [4], over 100 µM; in assay [5], over 100 µM; in assay [6], over 100 µM. Besides, the results for the TGI in assay [7], in assay [8] and in assay [9] were over 100 µM, 76.5 µM and 66 µM, respectively.
On to `C[C@H]1CC[P+](Cc2ccccc2)(c2ccccc2)C1` (some centres undefined), for which the TGI in assay [1] was over 100 µM; in assay [2], over 100 µM; in [4], over 100 µM; in [5], 80.2 µM; in assay [6], over 100 µM; in assay [7] it was over 100 µM. Further, the TGI in [8] and in assay [9] was over 100 µM each time.
As to `COc1ccccc1NC(=O)C1=C(C)NC(C)=C(C(=O)Nc2ccccc2OC)C1c1ccccc1[N+](=O)[O-]`, the TGI is 37.5 µM in assay [1]; 36.2 µM in assay [2]; 50.7 µM in assay [3]; 54.1 µM in assay [4]; 47.5 µM in assay [5]; 68 µM in assay [6]. The results for the TGI in [7], in [8] and in assay [9] were 39.6 µM, over 100 µM and 33 µM, respectively.
For `Cc1ccc(NC(=O)CCCC(=O)CC(=O)c2ccc(Br)cc2)cc1`, the TGI in assay [1], in assay [2], in assay [3], in assay [4], in assay [5] and in assay [6] was over 100 µM each time. In addition, the TGI in [7], in assay [8] and in [9] was over 100 µM each time.
In the case of `O=C(c1ccc(O)cc1O)C1C(c2ccc(O)cc2)OC(c2ccc(O)cc2)C1C(=O)c1ccc(O)cc1O` (centres undefined), the TGI was 63.1 µM in assay [1]; 31.2 µM in assay [2]; 42.5 µM in assay [3]; 39.7 µM in [5]; 45.5 µM in assay [8]; 33.3 µM in assay [9].
Turning to `C/C(=N\O)c1ccc2ccc3ccccc3c2c1`, the TGI was over 100 µM in [1]; 50.5 µM in [2]; over 100 µM in assay [3]; 45.2 µM in [4]; 53.4 µM in assay [5]; over 100 µM in assay [6]. In addition, the TGI was 48.7 µM in assay [7] and over 100 µM in assay [8].
As to `Cc1ccc(NC(=O)CCc2nc(=S)[nH][nH]2)cc1`, the TGI in assay [1], in [2], in assay [3], in [4], in assay [5] and in [6] was over 100 µM throughout. This molecule also had a TGI in assay [7] of over 100 µM.
Turning to `Nc1nncc2c1c(Br)cn2C1OC(CO)C(O)C1O` (centres undefined), the TGI in [1], in [2], in assay [3], in [4], in assay [5] and in [6] was over 100 µM each time. For the same molecule, the TGI in [7], in [8] and in assay [9] was over 100 µM each time.
Take `CC(=O)C1CCN(c2ccccc2)C1` (centres undefined): the TGI in [1], in [3], in [4], in assay [5], in assay [6] and in assay [7] was over 100 µM in each case. Moreover, the TGI in assay [8] was over 100 µM.
For the molecule `COc1cc(C2c3cc4c(cc3[C@@H](NCCN(C)C)C3COC(=O)[C@H]23)OCO4)cc(OC)c1O` (some centres undefined), the GI50 was < 0.01 µM and 0.0269 µM in assay [1]; 0.137 µM and 0.316 µM in [3]; 0.0319 µM and 0.088 µM in [4]; 0.526 µM and 1.62 µM in assay [5]; 0.0393 µM and 0.103 µM in assay [6]; 14.4 µM in assay [7]. Further, the GI50 in assay [8] is 0.301 µM and 1.11 µM; in [9], 0.383 µM and 1.21 µM. Besides, the TGI was 0.045 µM and 0.192 µM in assay [1]; 1.61 µM and 2.3 µM in assay [2]; 1.49 µM and 4.29 µM in assay [3]; 0.319 µM and 0.834 µM in [4]; 4.14 µM and 6.16 µM in assay [5]; 0.565 µM and 0.649 µM in [6]. In addition, the TGI in [7] was over 100 µM; in assay [8], 2.08 µM and 4.37 µM; in [9], 1.69 µM and 2.64 µM.
As to `O=C1c2ccccc2C(=O)c2cc3c(cc21)CS(=O)C3`, the TGI in [1], in assay [2], in [3], in assay [4], in assay [5] and in [6] was over 100 µM in each case. Also, the TGI in assay [8] and in [9] was over 100 µM throughout.
For `CC(C)(C)c1cc(CCC(=O)Nc2ccc(Cl)cc2)[nH]c(=S)n1`, the TGI in assay [1], in assay [2], in [3], in assay [4], in [5] and in [6] was over 100 µM each time. The TGI in assay [8] and in assay [9] was over 100 µM each time.
In the case of `COC(=O)C(CO)NC(=O)C(CSC(c1ccccc1)(c1ccccc1)c1ccccc1)NC(=O)OCc1ccccc1` (centres undefined) (Cbz-Cys(Trt)-Ser-OMe; configuration not given here), the TGI in [1] was over 53.3 µM; in assay [2], 28.5 µM; in [3] it was 44.9 µM; in [4] it was 24.9 µM; in assay [5], 25.6 µM; in assay [6] it was over 90.1 µM. For the same molecule, the TGI amounted to 0.221 µM in [7], 32.5 µM in [8] and 29 µM in assay [9].
For `CCCNC(=O)Nc1c([N+](=O)[O-])cc(C(F)(F)F)cc1[N+](=O)[O-]`, the TGI in assay [1], in assay [3], in assay [4], in assay [5], in [6] and in [7] was over 100 µM in each case. This molecule also returned a TGI in assay [8] of 76.1 µM.
For the molecule `O=C(O/N=C1\CCCC\C1=C/c1ccccc1)c1ccc([N+](=O)[O-])cc1`, the TGI in assay [1], in assay [2], in assay [3], in assay [4], in assay [6] and in [7] was over 100 µM each time. For the same molecule, the TGI in [8] and in [9] was over 100 µM throughout.

For the origin of these results see PubChem BioAssay (NCI).
